From US20230372481A1 (priority 2020, published 2023)
Where “and” joins values, the source holds several entries; their conditions need not be identical. Equal values may be shown once. Read-outs that look alike come from different tables or passages of the source.

Columns and labels:
CD45RA− memory T cells [1] = test: Phenotypic characterization of CD45RA− memory T cells in the presence of IL-15 (Table 11); format: cell-based, human
CD45RA− memory T cells [2] = test system: CD45RA− memory T cells;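 note: memory T cells from a convalescent donor cultured overnight or 72 h, surface markers read by flow cytometry, fold change versus a parallel culture lacking IL15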
Experimental: CD45RA− memory T cells from the convalescent donor where thawed and incubated in Tex MACs media TexMACS Medium (Miltenyi Biotec, Germany) supplemented with 5% AB serum (Sigma-Aldrich, Saint Louis, Missouri, USA) plus 50 ng/ml of IL15 o/n and for 72 hours. After that time the cells were harvested and the phenotypic assay was performed. The same culture without IL15 was run in parallel as a control.
Cell surface staining was performed for 20 minutes at 4 degrees with the following fluorochrome conjugated antibodies titrated to their optimal concentrations: 7AAD (BD Horizon), CD45RA FITC (BD Pharmingen), CD3 viogreen (Miltenyi Biotec), CD4 PECy7 (BD Pharmingen), CD8 APC Cy7 (BD Pharmingen), CD27 APC (BD Pharmingen). For the Treg panel CD25 BV421 (BD Horizon), and CD127 PE-CF594 (BD Horizon), was used. For the activation panel HLA-DR BV 421 (BD Pharmingen), CD69 BV421 (Biolegend), CD25 BV421 (BD Horizon), was used. For the exhaustion panel PD1 AF700 (Biolegend), NKG2D BV421 (Biolegend) was used. For the cytokine panel CD103 BV421 (BD Horizon) and CCR7 PE-CF594 (BD Horizon) was used. An average of 200.000 cells was acquired. Cell acquisition was performed using a FACS Canto. The analysis was performed using FlowJo 9.9.6 (FlowJo LLC).

[3] = IL-15 o/n vs control with no cytokine
[4] = IL15 (3 days) 50 ng/ml vs no cytokine
[5] = IL15 (3 days) 50 ng/ml vs no cytokine, listed as IL-15
[6] = IL15 (o.n.) 50 ng/ml vs no cytokine

IL15: cytokine fundamental for memory T cells that induces the activation, the proliferation and the survival of T cells
Fold increase of activation marker HLA-DR, CD45RA− CD3+ cells (CD45RA− memory T cells [1]; IL-15 72 hours vs control with no cytokine): 1.21 fold
Fold time change of exhaustion marker NKG2A, CD45RA−CD3+ cells (CD45RA− memory T cells [1]; IL-15 o/n): 0.61 fold
Fold time change of exhaustion marker PD-1, CD45RA−CD3+ cells (CD45RA− memory T cells [1]; IL-15 o/n): 1.43 fold
Fold increase of activation marker CD25, CD45RA− CD3+ cells (CD45RA− memory T cells [1]; [3]): 2.28 fold
Fold increase of activation marker CD69, CD45RA− CD3+ cells (CD45RA− memory T cells [1]; [3]): 3.82 fold
Fold increase of activation marker HLA-DR, CD45RA− CD3+ cells (CD45RA− memory T cells [1]; [3]): 1.11 fold
Fold change increase, % CD45RA− (CD45RA− memory T cells [2]; [4]): 1.0 fold
Fold change increase, CD3+ CCR7 (CD45RA− memory T cells [2]; [4]): 1 fold and 1.0 fold
Fold change increase, CD3+ CD25+ (CD45RA− memory T cells [2]; [4]): 8.5 fold
Fold change increase, CD3+ CD69 BV421 high (CD45RA− memory T cells [2]; [4]): 29.6 fold
Fold change increase, CD3+ CD103 (CD45RA− memory T cells [2]; [4]): 1.2 fold
Fold change increase, CD3+ HLA-DR+ (CD45RA− memory T cells [2]; [4]): 2.6 fold
Fold change increase, CD3+ NKG2A+ (CD45RA− memory T cells [2]; [4]): 1.4 fold
Fold change increase, CD3+ PD1 AF700 (CD45RA− memory T cells [2]; [4]): 8.7 fold
Fold change increase, CD4+ CCR7 (CD45RA− memory T cells [2]; [4]): 1.0 fold
Fold change increase, CD4+ CD25+ (CD45RA− memory T cells [2]; [4]): 8.6 fold
Fold change increase, CD4+ CD69 BV421 high (CD45RA− memory T cells [2]; [4]): 59.8 fold
Fold change increase, CD4+ CD103 (CD45RA− memory T cells [2]; [4]): 1.0 fold
Fold change increase, CD4+ HLA-DR+ (CD45RA− memory T cells [2]; [4]): 2.4 fold
Fold change increase, CD4+ NKG2A+ (CD45RA− memory T cells [2]; [4]): 0.6 fold
Fold change increase, CD4+ PD1 AF700 (CD45RA− memory T cells [2]; [4]): 9.1 fold
Fold change increase, CD8+ CCR7 (CD45RA− memory T cells [2]; [4]): 1.4 fold
Fold change increase, CD8+ CD25+ (CD45RA− memory T cells [2]; [4]): 36.4 fold
Fold change increase, CD8+ CD69 BV421 high (CD45RA− memory T cells [2]; [4]): 5.6 fold
Fold change increase, CD8+ CD103 (CD45RA− memory T cells [2]; [4]): 1.4 fold
Fold change increase, CD8+ HLA-DR+ (CD45RA− memory T cells [2]; [4]): 1.9 fold
Fold change increase, CD8+ NKG2A+ (CD45RA− memory T cells [2]; [4]): 1.2 fold
Fold change increase, CD8+ PD1 AF700 (CD45RA− memory T cells [2]; [4]): 6.1 fold
Fold change increase, CD45RA− % CD3+ (CD45RA− memory T cells [2]; [4]): 1.0 fold
Fold change increase, CD45RA− % CD4+ (CD45RA− memory T cells [2]; [4]): 1.0 fold
Fold change increase, CD45RA− % CD8+ (CD45RA− memory T cells [2]; [4]): 1.1 fold
Fold change increase, CD45RA− CD4+ CD27+ (CM) (CD45RA− memory T cells [2]; [4]): 1.0 fold
Fold change increase, CD45RA− CD4+ CD27− (EM) (CD45RA− memory T cells [2]; [4]): 0.9 fold
Fold change increase, CD45RA− CD4+ CD127lowCD25+ (Treg) (CD45RA− memory T cells [2]; [4]): 2.0 fold
Fold change increase, CD45RA− CD8+ CD27+ (CM) (CD45RA− memory T cells [2]; [4]): 1.0 fold
Fold change increase, CD45RA− CD8+ CD27− (EM) (CD45RA− memory T cells [2]; [4]): 1.0 fold
Fold change increase, CD3+ CCR7 (CD45RA− memory T cells [2]; [5]): No modification
Fold change increase, CD3+ CD25+ (CD45RA− memory T cells [2]; [5]): 8.6 fold
Fold change increase, % CD45RA− (CD45RA− memory T cells [2]; [6]): 1.0 fold
Fold change increase, CD3+ CCR7 (CD45RA− memory T cells [2]; [6]): 1.0 fold
Fold change increase, CD3+ CD25+ (CD45RA− memory T cells [2]; [6]): 1.5 fold
Fold change increase, CD3+ CD69 BV421 high (CD45RA− memory T cells [2]; [6]): 3.2 fold
Fold change increase, CD3+ CD103 (CD45RA− memory T cells [2]; [6]): 0.7 fold
Fold change increase, CD3+ HLA-DR+ (CD45RA− memory T cells [2]; [6]): 1.2 fold
Fold change increase, CD3+ NKG2A+ (CD45RA− memory T cells [2]; [6]): 0.7 fold
Fold change increase, CD3+ PD1 AF700 (CD45RA− memory T cells [2]; [6]): 0.7 fold
Fold change increase, CD4+ CCR7 (CD45RA− memory T cells [2]; [6]): 1.0 fold
Fold change increase, CD4+ CD25+ (CD45RA− memory T cells [2]; [6]): 1.5 fold
Fold change increase, CD4+ CD69 BV421 high (CD45RA− memory T cells [2]; [6]): 2.9 fold
Fold change increase, CD4+ CD103 (CD45RA− memory T cells [2]; [6]): 0.7 fold
Fold change increase, CD4+ HLA-DR+ (CD45RA− memory T cells [2]; [6]): 1.2 fold
Fold change increase, CD4+ NKG2A+ (CD45RA− memory T cells [2]; [6]): 1.2 fold
Fold change increase, CD4+ PD1 AF700 (CD45RA− memory T cells [2]; [6]): 0.8 fold
Fold change increase, CD8+ CCR7 (CD45RA− memory T cells [2]; [6]): 1.5 fold
Fold change increase, CD8+ CD25+ (CD45RA− memory T cells [2]; [6]): 4.4 fold
Fold change increase, CD8+ CD69 BV421 high (CD45RA− memory T cells [2]; [6]): 2.8 fold
Fold change increase, CD8+ CD103 (CD45RA− memory T cells [2]; [6]): 0.9 fold
Fold change increase, CD8+ HLA-DR+ (CD45RA− memory T cells [2]; [6]): 1.2 fold
Fold change increase, CD8+ NKG2A+ (CD45RA− memory T cells [2]; [6]): 0.8 fold
Fold change increase, CD8+ PD1 AF700 (CD45RA− memory T cells [2]; [6]): 1.7 fold
Fold change increase, CD45RA− % CD3+ (CD45RA− memory T cells [2]; [6]): 1.0 fold
Fold change increase, CD45RA− % CD4+ (CD45RA− memory T cells [2]; [6]): 1.0 fold
Fold change increase, CD45RA− % CD8+ (CD45RA− memory T cells [2]; [6]): 0.8 fold
Fold change increase, CD45RA− CD4+ CD27+ (CM) (CD45RA− memory T cells [2]; [6]): 1.0 fold
Fold change increase, CD45RA− CD4+ CD27− (EM) (CD45RA− memory T cells [2]; [6]): 0.9 fold
Fold change increase, CD45RA− CD4+ CD127lowCD25+ (Treg) (CD45RA− memory T cells [2]; [6]): 1.3 fold
Fold change increase, CD45RA− CD8+ CD27+ (CM) (CD45RA− memory T cells [2]; [6]): 1.1 fold
Fold change increase, CD45RA− CD8+ CD27− (EM) (CD45RA− memory T cells [2]; [6]): 0.9 fold
Fold change increase, CD3+ CCR7 (CD45RA− memory T cells [2]; IL15 (o.n.) 50 ng/ml vs no cytokine, listed as IL-15): No modification
